This is an account of results in patent US7989445B2, “Thienopyrimidone compound” (Takeda Pharmaceutical Company Limited, priority 2005, dated 2011).

SMILES strings stand for the structures. Where a name gives a salt, the structure may show the parent alone.

Usually melting point stands for the temperature, or range, at which the solid turns liquid. Regarding `CNCc1ccc(CCn2cnc3cc(-c4ccc(Cl)cc4)sc3c2=O)cc1` (as salt: hydrochloride) [Example 4, 6-(4-chlorophenyl)-3-(2-{4-[(methylamino)methyl]phenyl}ethyl)thieno[3,2-d]pyrimidin-4(3H)-one dihydrochloride], the melting point was > 300 °C.
As to `CN(CC(=O)O)Cc1ccc(CCn2cnc3cc(-c4ccc(Cl)cc4)sc3c2=O)cc1` (as salt: hydrochloride) [Example 30, N-(4-{2-[6-(4-chlorophenyl)-4-oxothieno[3,2-d]pyrimidin-3(4H) -yl]ethyl}benzyl)-N-methylglycine dihydrochloride], the melting point fell in the range of 252 to 253 °C.
Turning to `O=C1CNCCN1Cc1ccc(CCn2cnc3cc(-c4ccc(Cl)cc4)sc3c2=O)cc1` (as salt: hydrochloride) [Example 38, 6-(4-chlorophenyl)-3-(2-{4-[(2-oxopiperazin-1-yl)methyl]phenyl}ethyl)thieno[3,2-d]pyrimidin-4(3H)-one dihydrochloride], the melting point was in the range of 271 to 278 °C.
For `CN(Cc1ccc(CCn2cnc3cc(-c4ccc(Cl)cc4)sc3c2=O)cc1)C(=O)OC(C)(C)C` [Example 3, tert-butyl N-(4-{2-[6-(4-chlorophenyl)-4-oxothieno[3,2-d]pyrimidin-3(4H)-yl]ethyl}benzyl)-N-methylcarbamate], the melting point lay within 206 to 209 °C.
For `CN(Cc1ccc(CCn2cnc3cc(-c4ccc(Cl)cc4)sc3c2=O)cc1)C(=O)CC(C)(C)C` [Example 5, N-(4-{2-[6-(4-chlorophenyl)-4-oxothieno[3,2-d]pyrimidin-3(4H)-yl]ethyl}benzyl)-N,3,3-trimethylbutanamide], the melting point was 181 °C.
Regarding `CN(Cc1ccc(CCn2cnc3cc(-c4ccc(Cl)cc4)sc3c2=O)cc1)C(=O)C1CC1` [Example 7, N-(4-{2-[6-(4-chlorophenyl)-4-oxothieno[3,2-d]pyrimidin-3(4H) -yl]ethyl}benzyl)-N-methylcyclopropanecarboxamide], the melting point worked out at 178 °C.
The same measure for `CN(C)C(=O)N(C)Cc1ccc(CCn2cnc3cc(-c4ccc(Cl)cc4)sc3c2=O)cc1` [Example 8, N-(4-{2-[6-(4-chlorophenyl)-4-oxothieno[3,2-d]pyrimidin-3(4H) -yl]ethyl}benzyl)-N,N′,N′-trimethylurea]: 160 to 165 °C; for `O=C(Cn1cnc2cc(-c3ccc(Cl)cc3)sc2c1=O)c1ccc2c(c1)CCN(C(=O)C(F)(F)F)CC2` [Example 10, 6-(4-chlorophenyl)-3-{2-oxo-2-[3-(trifluoroacetyl) -2,3,4,5-tetrahydro-1H-3-benzazepin-7-yl]ethyl}thieno[3,2-d]pyrimidin-4(3H)-one]: 285 to 287 °C.
Molecule `CN(Cc1ccc(C(=O)Cn2cnc3cc(-c4ccc(Cl)cc4)sc3c2=O)cc1)C(=O)C(F)(F)F` [Example 12, N-(4-{[6-(4-chlorophenyl)-4-oxothieno[3,2-d]pyrimidin-3(4H) -yl]acetyl}benzyl)-2,2,2-trifluoro-N-methylacetamide] showed a melting point of 235 to 238 °C.
For the molecule `CC(=O)N(C)Cc1ccc(C(=O)Cn2cnc3cc(-c4ccc(Cl)cc4)sc3c2=O)cc1` [Example 14, N-(4-{[6-(4-chlorophenyl)-4-oxothieno[3,2-d]pyrimidin-3(4H) -yl]acetyl}benzyl)-N-methylacetamide], the melting point lay within 250 to 251 °C.
The same measure for `CN(C(=O)C(F)(F)F)C1Cc2ccc(C(=O)Cn3cnc4cc(-c5ccc(Cl)cc5)sc4c3=O)cc2C1` (centres unmarked) [Example 15, N-(5-{[6-(4-chlorophenyl)-4-oxothieno[3,2-d]pyrimidin-3(4H) -yl]acetyl}-2,3-dihydro-1H-inden-2-yl)-2,2,2-trifluoro-N -methylacetamide]: 245 to 248 °C; for `CNC1Cc2ccc(C(=O)Cn3cnc4cc(-c5ccc(Cl)cc5)sc4c3=O)cc2C1` (centres unmarked) [Example 16, 6-(4-chlorophenyl)-3-{2-[2-(methylamino)-2,3-dihydro-1H-inden-5-yl]-2-oxoethyl}thieno[3,2-d]pyrimidin-4(3H)-one]: 226 to 229 °C; for `CC(c1ccc(CCn2cnc3cc(-c4ccc(Cl)cc4)sc3c2=O)cc1)N1CC[C@H](F)C1` (stereo partly drawn) [Example 19, 6-(4-chlorophenyl)-3-[2-[4-[1-[(3S)-3-fluoropyrrolidin-1-yl]ethyl]phenyl]ethyl]thieno[3,2-d]pyrimidin-4(3H)-one]: 160 to 163 °C.
Next, `CC(=O)N(C)N(C(=O)OC(C)(C)C)c1ccc(CCn2cnc3cc(-c4ccc(Cl)cc4)sc3c2=O)cc1` [Example 20]: 193 to 194 °C.
The same measure for `CN(Cc1ccc(CCn2cnc3cc(-c4ccc(Cl)cc4)sc3c2=O)cc1)S(C)(=O)=O` [Example 24, N-(4-{2-[6-(4-chlorophenyl)-4-oxothieno[3,2-d]pyrimidin-3(4H) -yl]ethyl}benzyl)-N-methylmethanesulfonamide]: 230 to 232 °C.
As for `O=C1CCCCN1Cc1ccc(CCn2cnc3cc(-c4ccc(Cl)cc4)sc3c2=O)cc1` [Example 25, 6-(4-chlorophenyl)-3-(2-{4-[(2-oxopiperidin-1-yl)methyl]phenyl}ethyl)thieno[3,2-d]pyrimidin-4(3H)-one], the melting point lay in the range of 199 to 201 °C.
Regarding `O=C1CCCCN1Cc1ccc(CCn2cnc3cc(-c4ccc(F)cc4)sc3c2=O)cc1` [Example 26, 6-(4-fluorophenyl)-3-(2-{4-[(2-oxopiperidin-1-yl)methyl]phenyl}ethyl)thieno[3,2-d]pyrimidin-4(3H)-one], the melting point is 216 to 217 °C.
With `CNCC(=O)N(C)Cc1ccc(CCn2cnc3cc(-c4ccc(Cl)cc4)sc3c2=O)cc1` [Example 28, N-(4-{2-[6-(4-chlorophenyl)-4-oxothieno[3,2-d]pyrimidin-3(4H) -yl]ethyl}benzyl)-N,N^2-dimethylglycinamide], the melting point fell in the range of 166 to 169 °C.
Next, `CN(CC(=O)OC(C)(C)C)Cc1ccc(CCn2cnc3cc(-c4ccc(Cl)cc4)sc3c2=O)cc1` [Example 29, N-(4-{2-[6-(4-chlorophenyl)-4-oxothieno[3,2-d]pyrimidin-3(4H) -yl]ethyl}benzyl)-N-methylglycine tert-butyl ester]: 130 °C; `CNC(=O)CN(C)Cc1ccc(CCn2cnc3cc(-c4ccc(Cl)cc4)sc3c2=O)cc1` [Example 31, N^2-(4-{2-[6-(4-chlorophenyl)-4-oxothieno[3,2-d]pyrimidin-3(4H) -yl]ethyl}benzyl)-N,N^2-dimethylglycinamide]: 146 to 149 °C.
Regarding `O=C1C[C@@H](O)CN1Cc1ccc(CCn2cnc3cc(-c4ccc(Cl)cc4)sc3c2=O)cc1` [Example 33, 6-(4-chlorophenyl)-3-[2-(4-{[(4R)-4-hydroxy-2-oxopyrrolidin-1-yl]methyl}phenyl)ethyl]thieno[3,2-d]pyrimidin-4(3H)-one], the melting point was 243 to 246 °C.
Next, `CCN1CCN(Cc2ccc(CCn3cnc4cc(-c5ccc(Cl)cc5)sc4c3=O)cc2)C(=O)C1=O` [Example 34, 1-(4-{2-[6-(4-chlorophenyl)-4-oxothieno[3,2-d]pyrimidin-3(4H) -yl]ethyl}benzyl)-4-ethylpiperazine-2,3-dione]: 285 to 288 °C; `O=C1CN(Cc2ccc(CCn3cnc4cc(-c5ccc(Cl)cc5)sc4c3=O)cc2)CCN1` [Example 35, 6-(4-chlorophenyl)-3-(2-{4-[(3-oxopiperazin-1-yl)methyl]phenyl}ethyl)thieno[3,2-d]pyrimidin-4(3H)-one]: 232 to 234 °C.
The molecule `CC(=O)NC1CCN(Cc2ccc(CCn3cnc4cc(-c5ccc(Cl)cc5)sc4c3=O)cc2)C1` (centres unmarked) [Example 36, N-[1-(4-{2-[6-(4-chlorophenyl)-4-oxothieno[3,2-d]pyrimidin-3(4H)-yl]ethyl}benzyl)pyrrolidin-3-yl]acetamide] yielded a melting point of 196 to 198 °C.
Next, `CC(C)(C)OC(=O)N1CCN(Cc2ccc(CCn3cnc4cc(-c5ccc(Cl)cc5)sc4c3=O)cc2)C(=O)C1` [Example 37, tert-butyl 4-(4-{2-[6-(4-chlorophenyl)-4-oxothieno[3,2-d]pyrimidin-3(4H)-yl]ethyl}benzyl)-3-oxopiperazine-1-carboxylate]: 165 to 170 °C; `CC(=O)N1CCN(Cc2ccc(CCn3cnc4cc(-c5ccc(Cl)cc5)sc4c3=O)cc2)C(=O)C1` [Example 39, 3-(2-{4-[(4-acetyl-2-oxopiperazin-1-yl)methyl]phenyl}ethyl)-6-(4-chlorophenyl)thieno[3,2-d]pyrimidin-4(3H)-one]: 204 to 207 °C.
